Reference: US20100189675A1, “COSMETIC USE OF AN IMIDOPERCARBOXYLIC ACID DERIVATIVE AS DESQUAMATING AGENT” (L'Oreal, priority 2007, published 2010)

System: corneocytes
Assay: In vitro test of desquamating efficacy (corneocytes liberated, expressed as protein concentration)
Assay type: cell-based
Method: An in vitro test was carried out in order to determine the efficacy of phthalimidoperoxycaproic acid compared with a composition comprising 30% of glycolic acid and 70% of water. The number of corneocytes liberated is expressed as protein concentration. After applying a composition comprising 17% of phthalimidoperoxycaproic acid, the protein concentration is about 320 μg/ml, while it is about 210 μg/ml for the composition comprising glycolic acid.

Row | Structure (SMILES) | number of corneocytes liberated expressed as protein concentration (after applying a composition comprising 17% of phthalimidoperoxycaproic acid) | desquamating efficacy compared with reference (compared with glycolic acid (AG) at 30%) | number of corneocytes liberated expressed as protein concentration (composition comprising 30% of glycolic acid and 70% of water)
1 | O=C(CCCCCN1C(=O)c2ccccc2C1=O)OO [phthalimidoperoxycaproic acid] | about 320 μg/ml | high desquamating efficacy greater than the reference glycolic acid | –
2 | O=C(O)CO [glycolic acid, reference compound] | – | – | about 210 μg/ml
